Values after ≈ are worked out from the molar mass of the structure shown. Values joined by “and” are separate entries in the source; they are usually repeats but may differ in a detail not shown here. Equal values may be shown once. Read-outs that look alike come from different tables or passages of the source.
Experiments:
[1] = target: T1, Kinase insert Domain containing Receptor (KDR: the catalytic domain of the VEGF receptor) (Homo sapiens, UniProt P35968); assay: Inhibition of Kinase insert Domain containing Receptor (KDR); type: biochemical;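 note: KDR phosphorylating a Glu:Tyr 4:1 copolymer with P32- or P33-labelled ATP, Mg++ and vanadate, read as acid-insoluble radiolabel, compared with compound-free reaction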
T1 construct: KDR: the catalytic domain of the VEGF receptor
T1 sequence (P35968 834-1162 limits assumed): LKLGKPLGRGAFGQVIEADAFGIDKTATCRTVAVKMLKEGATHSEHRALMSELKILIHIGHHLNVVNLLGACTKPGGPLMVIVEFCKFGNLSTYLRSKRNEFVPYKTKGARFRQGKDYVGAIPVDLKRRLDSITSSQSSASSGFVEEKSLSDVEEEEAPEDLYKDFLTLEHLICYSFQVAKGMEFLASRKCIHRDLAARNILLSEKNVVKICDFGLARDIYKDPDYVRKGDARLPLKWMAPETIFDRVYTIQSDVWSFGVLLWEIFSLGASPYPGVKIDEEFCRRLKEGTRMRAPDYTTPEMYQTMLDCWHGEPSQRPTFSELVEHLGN

[2] = target: recombinant human MEK 1 (MAPKK) and recombinant human ERK2 (MAPK); assay: Mitogen Activated Protein Kinase (MAPK) assay, two component coupled MEK 1 / ERK2; type: biochemical; conditions: separate entries for the same compound = evaluated more than one time;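 note: MEK 1-activated ERK2 phosphorylates MBP or Myc peptide with 33P-ATP, filter capture and scintillation counting, inhibitor preincubated with ERK2 30 min at 0 °C, inhibition relative to uninhibited control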
[3] = target: T2, His-tagged cytoplasmic domain of EGFR (Homo sapiens, UniProt P00533); assay: Inhibition of Epidermal Growth Factor Receptor Kinase (EGF-R) using recombinant enzyme; type: biochemical; conditions: recombinant enzyme; RR-SRC peptide; average of the number of tests; read-out: IC50;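 note: radiometric kinase assay measuring radiolabeled phosphate transfer from ATP onto the peptide tyrosine by scintillation counting, control is reaction without compound, background subtracted, IC50 from dose-response curve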
T2 construct: containing the EGFR cDNA encoding amino acids 645 - 1186 preceded by Met-Ala-(His)6; made in house; host or cells: Sf9 cells, recombinant baculovirus vHcEGFR52
T2 sequence (P00533 669-1210): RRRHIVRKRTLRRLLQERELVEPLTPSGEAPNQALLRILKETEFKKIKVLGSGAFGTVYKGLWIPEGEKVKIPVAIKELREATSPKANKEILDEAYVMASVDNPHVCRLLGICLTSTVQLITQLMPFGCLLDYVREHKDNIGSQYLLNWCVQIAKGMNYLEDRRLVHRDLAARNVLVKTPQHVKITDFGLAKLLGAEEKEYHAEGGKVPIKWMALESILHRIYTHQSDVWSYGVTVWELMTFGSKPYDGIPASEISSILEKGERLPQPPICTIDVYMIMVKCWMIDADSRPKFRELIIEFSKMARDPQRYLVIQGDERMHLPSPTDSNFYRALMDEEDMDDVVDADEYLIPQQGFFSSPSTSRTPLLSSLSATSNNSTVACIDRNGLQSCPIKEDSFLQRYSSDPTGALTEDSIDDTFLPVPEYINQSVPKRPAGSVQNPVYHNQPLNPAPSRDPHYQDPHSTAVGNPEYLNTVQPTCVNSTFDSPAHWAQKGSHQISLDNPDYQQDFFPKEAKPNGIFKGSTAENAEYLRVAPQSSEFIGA
Procedure: The enzyme used in this assay is the His-tagged cytoplasmic domain of EGFR.
Compounds to be evaluated were made into 10 mg/mL stock solutions in 100% dimethylsulfoxide (DMSO). Prior to experiment, stock solutions were diluted to 500 µM with 100% DMSO and then serially diluted to the desired concentration with HEPES buffer (30 mM HEPES pH 7.4).
For the enzyme reaction, 10 µL of each inhibitor (at various concentrations) were added to each well of a 96-well plate. […] This was allowed to sit for 10 min on ice and was followed by the addition of 5 µl peptide (80 µM final conc.), 10µl of 4X Buffer (Table A), 0.25 µL ^33P-ATP and 12 µL H2O. The reaction was allowed to run for 90 min at room temperature and was followed by spotting the entire volume on to precut P81 filter papers. The filter discs were washed 2X with 0.5% phosphoric acid and radioactivity was measured using a liquid scintillation counter.
The % inhibition of the test compound was determined for at least three different concentrations and the IC50 value was evaluated from the dose response curve. […] CPM(control) is in units of counts per minute and was a number expressing the amount of radiolabeled ATP (g-33P) incorporated into the RR-SRC peptide substrate by the enzyme after 90 minutes at room temperature in the absence of test compound as measured by liquid scintillation counting. The CPM values were corrected for the background counts produced by ATP in the absence of the enzymatic reaction. The IC50 values reported in TABLE 2 are averages of the number of tests conducted.

[4] = tested on: SW620; assay: Inhibition of cancer cell growth as measured by cell number, SW620; type: cell-based, human; conditions: Homo sapiens, SW-620, 48 h, read-out: IC50 SW620, cell number, Sulforhodamine B, 48 hours exposure; Table 8;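 note: SW620 was included as a cell line with little or no EGFR or HER2/neu expression, in contrast to receptor-overexpressing lines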
Source text: (§1) The cell lines were chosen since they overexpressed epidermal growth factor receptor (EGFR) (i.e. A431) or HER2/neu (SKBR3), or had little to no expression of the these receptors (SW620, LOX, MCF7).

[5] = tested on: MCF7; assay: Inhibition of cancer cell growth as measured by cell number, MCF7; type: cell-based, human; conditions: Homo sapiens, MCF7, 48 h, read-out: IC50 MCF7, cell number, Sulforhodamine B, 48 hours exposure; Table 8;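 note: MCF7 was included as a line with little or no EGFR or HER2/neu expression, in contrast to the receptor-overexpressing lines of the panel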
Source text: as §1

[6] = tested on: LOX; assay: Inhibition of cancer cell growth as measured by cell number, LOX; type: cell-based, human; conditions: Homo sapiens, LOX, 48 h, read-out: IC50 LOX, cell number, Sulforhodamine B, 48 hours exposure; Table 8;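 note: LOX cells served as a line with low or absent EGFR and HER2/neu expression, in contrast to receptor-overexpressing lines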
Source text: as §1

[7] = tested on: A431; assay: Inhibition of cancer cell growth as measured by cell number, A431; type: cell-based, human; conditions: Table 8; for IC50: Homo sapiens, A-431, 48 h, read-out: IC50 A431, cell number, Sulforhodamine B, 48 hours exposure;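 for all read-outs here: human A431 line, picked because it overexpresses epidermal growth factor receptor (EGFR)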
Source text: as §1

[8] = tested on: SKBR3; assay: Inhibition of cancer cell growth as measured by cell number, SKBR3; type: cell-based, human; conditions: Table 8; for IC50: Homo sapiens, SK-BR-3, 48 h, read-out: IC50 SKBR3, cell number, Sulforhodamine B, 48 hours exposure;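 for all read-outs here: SK-BR-3 cells were selected as a line overexpressing HER2/neu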
Source text: as §1

[9] = pH 7.2, radioactive format, read-out: KDR IC50 (converted)
[10] = cell number, Sulforhodamine B, 48 hours exposure

Compound | IC50 [2] | IC50 [3] | IC50 [4] | IC50 [5] | IC50 [6] | IC50 [7] | IC50 [8] | also measured
4-(4-Chloro-2-fluoro-phenylamino)-5,8-dimethoxy-quinoline-3-carbonitrile [Example 238] | > 100 µM | – | – | – | – | – | – | KDR IC50 ([1]; pH 7.2, radioactive format): >30 µg/mL
COc1cc2c(Nc3cc(O)c(Cl)cc3F)c(C#N)cnc2cc1OCCN(C)C [Example 86, 4-(4-Chloro-2-fluoro-5-hydroxy-phenylamino)-7-(2-dimethylamino-ethoxy)-6-methoxy-quinoline-3-carbonitrile] | 1.8 µM and 2 µM | – | – | – | – | – | – | IC50 [1, 9]: 6.96 µM
COc1cc2c(Nc3cc(O)c(Cl)cc3F)c(C#N)cnc2cc1OCCN1CCOCC1 [Example 87, 4-(4-Chloro-2-fluoro-5-hydroxy-phenylamino)-6-methoxy-7-(2-morpholin-4-yl-ethoxy)-quinoline-3-carbonitrile] | – | – | – | – | – | – | – | IC50 [1, 9]: 6.34 µM
CCOc1cc2c(Nc3ccc(C)c(O)c3)c(C#N)cnc2cc1OC [Example 97, 6-Ethoxy-4-(3-hydroxy-4-methylphenylamino)-7-methoxyquinoline-3-carbonitrile] | – | – | – | – | – | – | – | IC50 [1, 9]: 0.286 µM
Cc1cc([N+](=O)[O-])cc2c(Nc3cccc(Br)c3)c(C#N)cnc12 [Example 105, 4-[(3-Bromophenyl)amino]-8-methyl-6-nitro-3-quinolinecarbonitrile] | > 100 µM | 1 nM | 0.06 µg/mL (≈ 0.157 µM) | 2.09 µg/mL (≈ 5.45 µM) | 0.72 µg/mL (≈ 1.88 µM) | 0.13 µg/mL (≈ 0.339 µM) | 1.84 µg/mL (≈ 4.8 µM) | –
COc1cc2ncc(C#N)c(Nc3ccc(Cl)cc3F)c2cc1OCCCN1CCOCC1 [Example 127] | 6 µM | – | – | – | – | – | – | IC50 [1]: 21.2 µM
COc1cc2ncc(C#N)c(Nc3ccc(C)c(O)c3)c2cc1OCCCN1CCOCC1 [Example 128] | – | – | – | – | – | – | – | IC50 [1]: 17.8 µM
C=CC(=O)Nc1ccc2ncc(C#N)c(Nc3cccc(OC)c3)c2c1 [Example 138, N-{3-Cyano-4-[(3-methoxyphenyl)amino]-6-quinolinyl}-2-propenamide] | – | 3.5 nM | 3.52 µg/mL (≈ 10.2 µM) | 3.51 µg/mL (≈ 10.2 µM) | 1.12 µg/mL (≈ 3.25 µM) | 0.44 µg/mL (≈ 1.28 µM) | < 0.01 µg/mL | –
C=CC(=O)Nc1ccc2ncc(C#N)c(Nc3ccc(Br)cc3)c2c1 [Example 151, N-{4-[(4-Bromophenyl)amino]-3-cyano-6-quinolinyl} -2-propenamide] | – | 500 nM | < 0.01 µg/mL | 0.61 µg/mL (≈ 1.55 µM) | 0.08 µg/mL (≈ 0.203 µM) | 0.09 µg/mL (≈ 0.229 µM) | 0.07 µg/mL (≈ 0.178 µM) | –
N#Cc1cnc2ccc([N+](=O)[O-])cc2c1Nc1ccc(F)c(F)c1 [Example 156, 4-[(3,4-Difluorophenyl)amino]-6-nitro-3-quinolinecarbonitrile] | > 100 µM | 500 nM | 7.91 µg/mL (≈ 24.2 µM) | 7.57 µg/mL (≈ 23.2 µM) | 67 µg/mL (≈ 205 µM) | 3.77 µg/mL (≈ 11.6 µM) | 7.43 µg/mL (≈ 22.8 µM) | –
C#Cc1cccc(Nc2c(C#N)cnc3ccc(NC(=O)C#CC)cc23)c1 [Example 164, N-{3-Cyano-4-[(3-ethynylphenyl)amino]-6-quinolinyl}-2-butynamide] | > 100 µM | 90 nM | – | 57 µg/mL (≈ 163 µM) | 0.9 µg/mL (≈ 2.57 µM) | 0.6 µg/mL (≈ 1.71 µM) | 0.7 µg/mL (≈ 2 µM) | IC50 A431 [7, 10]: 0.322 µg/mL (≈ 0.919 µM); IC50 SKBR3 [8, 10]: 0.684 µg/mL (≈ 1.95 µM)
C#Cc1cccc(Nc2c(C#N)cnc3ccc(NC(=O)C=C)cc23)c1 [Example 165, N-{3-Cyano-4-[(3-ethynyphenyl)amino]-6-quinolinyl)-2-propenamide] | > 100 µM | 0.5 nM | 3 µg/mL (≈ 8.87 µM) | 5.8 µg/mL (≈ 17.1 µM) | 0.8 µg/mL (≈ 2.36 µM) | 0.2 µg/mL (≈ 0.591 µM) | 0.1 µg/mL (≈ 0.296 µM) | –
C=C(CC(=O)Nc1ccc2ncc(C#N)c(Nc3cccc(Br)c3)c2c1)C(=O)O [Example 186, 4-[[4-[(3-Bromophenyl)amino]-3-cyano-6-quinolinyl]-amino]-2-methylene-4-oxo-butanoic acid] | – | 100 nM | 62.6 µg/mL (≈ 139 µM) | 42.5 µg/mL (≈ 94.2 µM) | 46.4 µg/mL (≈ 103 µM) | 37.6 µg/mL (≈ 83.3 µM) | 21.5 µg/mL (≈ 47.6 µM) | –
COc1cc2c(Nc3cccc(N(C)C)c3)c(C#N)cnc2c(OC)c1OC [Example 232, 4-(3-Dimethylamino-phenylamino)-6.7.8-trimethoxy-quinoline-3-carbonitrile] | – | – | – | – | – | – | – | IC50 [1, 9]: > 79.3 µM

— patent EP0973746B1, “SUBSTITUTED 3-CYANO QUINOLINES” (Wyeth Holdings Corporation, priority 1997, dated 1998)
